Measurements reported in the supplement of paper PMC6045584.
± gives the standard deviation of the averaged measurements.

Assays:
[1] = compound: C=CC(=O)Nc1cc2c(Nc3ccc(F)c(Cl)c3)ncnc2cc1OCCCN1CCOCC1 [CANERTINIB]; experiment: surviving fraction relative to DMSO-only wells; higher = less growth inhibition; conditions: exposure time: 5 days
Outline: (§1)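 Continuous five-day exposure to inhibitors at 0.5, 1, 5, 10, 50, 100, 500 and 1000 nM started 24 hours after log-phase tumour cell lines were seeded at 250–500 cells per well in 384-well plates. Luminescence was read after 10 minutes at room temperature. Viability is given as surviving fraction, meaning CellTiter-Glo luminescence normalised to the median of DMSO-only wells.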

[2] = compound: CC[C@@H]1C(=O)N(C)c2cnc(Nc3ccc(C(=O)NC4CCN(C)CC4)cc3OC)nc2N1C1CCCC1 [BI-2536]; experiment: as above; conditions: exposure time: 5 days
Outline: as §1

Test System | surviving fraction ([1]; 0.5 nM) | surviving fraction ([1]; 1 nM) | surviving fraction ([1]; 5 nM) | surviving fraction ([1]; 10 nM) | surviving fraction ([1]; 50 nM) | surviving fraction ([1]; 100 nM) | surviving fraction ([1]; 500 nM) | surviving fraction ([1]; 1000 nM) | surviving fraction ([2]; 0.5 nM) | surviving fraction ([2]; 1 nM) | surviving fraction ([2]; 5 nM) | surviving fraction ([2]; 10 nM) | surviving fraction ([2]; 50 nM) | surviving fraction ([2]; 100 nM) | surviving fraction ([2]; 500 nM) | surviving fraction ([2]; 1000 nM)
KPD BONE | 0.943 ± 0.043 | 0.947 ± 0.076 | 0.962 ± 0.026 | 0.929 ± 0.023 | 0.917 ± 0.068 | 0.922 ± 0.04 | 0.776 ± 0.048 | 0.497 ± 0.047 | 0.919 ± 0.06 | 0.925 ± 0.022 | 0.79 ± 0.024 | 0.482 ± 0.016 | 0.205 ± 0.012 | 0.197 ± 0.011 | 0.113 ± 0.0035 | 0.0597 ± 0.0038
LNCAP PROSTATE | 1.1 ± 0.078 | 1 ± 0.059 | 1.09 ± 0.06 | 1.08 ± 0.036 | 1.01 ± 0.057 | 1.04 ± 0.055 | 0.935 ± 0.093 | 0.782 ± 0.086 | 1.05 ± 0.099 | 1.03 ± 0.08 | 0.0577 ± 0.0084 | 0.0533 ± 0.0055 | 0.113 ± 0.018 | 0.115 ± 0.028 | 0.141 ± 0.022 | 0.112 ± 0.013
MCF7 BREAST | 0.838 ± 0.027 | 0.831 ± 0.023 | 0.818 ± 0.02 | 0.79 ± 0.018 | 0.888 ± 0.02 | 0.859 ± 0.039 | 0.854 ± 0.082 | 0.808 ± 0.026 | 0.911 ± 0.071 | 0.913 ± 0.07 | 0.797 ± 0.074 | 0.445 ± 0.018 | 0.408 ± 0.021 | 0.38 ± 0.022 | 0.394 ± 0.01 | 0.319 ± 0.0042
MDAMB134 BREAST | 0.622 ± 0.012 | 0.659 ± 0.074 | 0.562 ± 0.0064 | 0.577 ± 0.0092 | 0.767 ± 0.12 | 0.831 ± 0.022 | 0.868 ± 0.066 | 0.718 ± 0.016 | 0.944 ± 0.11 | 0.699 ± 0.069 | 0.792 ± 0.03 | 0.835 ± 0.034 | 1.2 ± 0.058 | 1.101 ± 0.0092 | 0.788 ± 0.0092 | 0.644 ± 0.048
MDAMB157 BREAST | 0.847 ± 0.035 | 0.86 ± 0.088 | 0.858 ± 0.048 | 0.936 ± 0.049 | 0.921 ± 0.067 | 0.844 ± 0.089 | 0.753 ± 0.013 | 0.658 ± 0.051 | 0.912 ± 0.041 | 0.62 ± 0.19 | 0.0967 ± 0.0025 | 0.0937 ± 0.013 | 0.093 ± 0.0095 | 0.157 ± 0.033 | 0.224 ± 0.013 | 0.255 ± 0.0076
MDAMB231 BREAST | 0.93 ± 0.033 | 0.937 ± 0.027 | 0.956 ± 0.022 | 0.946 ± 0.031 | 0.986 ± 0.021 | 0.989 ± 0.029 | 0.874 ± 0.02 | 0.746 ± 0.039 | 0.975 ± 0.02 | 0.954 ± 0.01 | 0.425 ± 0.015 | 0.385 ± 0.011 | 0.39 ± 0.011 | 0.391 ± 0.0073 | 0.338 ± 0.013 | 0.245 ± 0.0063
MDAMB361 BREAST | 0.704 ± 0.05 | 0.718 ± 0.16 | 0.642 ± 0.011 | 0.674 ± 0.078 | 0.74 ± 0.064 | 0.832 ± 0.092 | 0.691 ± 0.067 | 0.682 ± 0.053 | 0.674 ± 0.046 | 0.617 ± 0.026 | 0.578 ± 0.051 | 0.637 ± 0.0066 | 0.565 ± 0.026 | 0.517 ± 0.013 | 0.245 ± 0.0072 | 0.21 ± 0.028
MDAMB436 BREAST | 0.798 ± 0.056 | 0.875 ± 0.064 | 0.854 ± 0.065 | 0.839 ± 0.061 | 0.956 ± 0.094 | 0.98 ± 0.13 | 0.839 ± 0.054 | 0.742 ± 0.067 | 0.841 ± 0.027 | 0.649 ± 0.065 | 0.4 ± 0.048 | 0.27 ± 0.0028 | 0.331 ± 0.017 | 0.379 ± 0.032 | 0.394 ± 0.027 | 0.38 ± 0.04
MDAMB453 BREAST | 1.04 ± 0.026 | 1 ± 0.016 | 1.01 ± 0.058 | 1.01 ± 0.071 | 1.02 ± 0.047 | 1.07 ± 0.026 | 0.823 ± 0.0089 | 0.637 ± 0.067 | 0.994 ± 0.018 | 0.763 ± 0.052 | 0.178 ± 0.019 | 0.156 ± 0.025 | 0.173 ± 0.017 | 0.171 ± 0.0075 | 0.108 ± 0.031 | 0.0703 ± 0.042
MDAMB468 BREAST | 0.866 ± 0.035 | 0.837 ± 0.087 | 0.841 ± 0.087 | 0.777 ± 0.054 | 0.789 ± 0.068 | 0.72 ± 0.07 | 0.478 ± 0.029 | 0.382 ± 0.017 | 0.902 ± 0.037 | 0.462 ± 0.048 | 0.0863 ± 0.0084 | 0.111 ± 0.018 | 0.215 ± 0.018 | 1.05 ± 0.061 | 0.111 ± 0.008 | 0.084 ± 0.0027
MG63 BONE | 0.947 ± 0.015 | 0.919 ± 0.016 | 0.9893 ± 0.007 | 0.971 ± 0.013 | 1.02 ± 0.014 | 1.02 ± 0.011 | 0.993 ± 0.025 | 1 ± 0.022 | 1.057 ± 0.0095 | 1.02 ± 0.053 | 0.884 ± 0.049 | 0.0403 ± 0.0059 | 0.033 ± 0.0017 | 0.023 ± 0.0017 | 0.029 ± 0.001 | 0.03 ± 0.001
